pKd: −log10 of the molar value. Where two headings read alike, the source gives them in different places.

Experimental findings from patent publication US20080015194A1, “METHODS AND COMPOSITIONS OF TARGETED DRUG DEVELOPMENT” (priority 2006, published 2008) are described below.

The target in one assay is T1, EGFR (Rattus norvegicus, UniProt G3V6K6).
T1 construct: Receptor source was rat liver membranes; tissue NovaScreen BioSciences; host or cells: rat liver membranes
The assay can be described thus: Inhibition of [125I]EGF binding to EGFR, radioligand filtration assay (NovaScreen). As to conditions: rat liver membranes. As for the experimental part:
Identified compounds, representing various pharmacaphore models, were tested for ability to inhibit EGFR at 25 μM.
AD4-compounds were identified using pharmacophore models (see Example 4) and then were docked with the binding site of EGFR (SEQ ID NO: 1) that is recognized by defined CDRs of cetuximab. The inhibition of epidermal growth factor binding by AD4-compounds was then determined (NovaScreen BioSciences, Hanover, Md.). Inhibition of EGF binding was determined at 25 μM concentration.
Receptor source was rat liver membranes. The radioligand was [^125I]EGF ([…]) at a final ligand concentration of 0.36 nM. A non-specific determinant was used as EGF—[100 nM]. The reference compound and positive control was EGF. Reactions were carried out in 10 mM HEPES (pH 7.4) containing 0.1% BSA at 25 °C for 60 minutes. The reaction was terminated by rapid vacuum filtration onto glass fiber filters. Radioactivity trapped onto the filters was determined and compared to control values to ascertain any interactions of test compounds with the EGF binding site. The EGF inhibitor assays were modified from, for example, Mukku (1984) J. Biol. Chem. 259, 6543-6546; Duh et al. (1990) World J. Surgery 14, 410-418; Lokeshwar et al. (1989) J. Biol. Chem. 264(32), 19318-19326.

The target of assay [1] is EGF receptor of rat liver membranes (rat). The assay can be described thus: radioligand binding of [125I]EGF to rat liver membranes, filtration (NovaScreen).
[2] abbreviates: 25 μM compound, [125I]EGF 0.36 nM, read-out: inhibition of binding of EGF to EGFR.
Where [3] appears, read: inhibition of [125I]EGF binding at 25 μM, read-out: EGFR INHIBITION
Where [4] appears, read: 25 μM compound, [125I]EGF 0.36 nM.

T1 sequence (G3V6K6 25-1209): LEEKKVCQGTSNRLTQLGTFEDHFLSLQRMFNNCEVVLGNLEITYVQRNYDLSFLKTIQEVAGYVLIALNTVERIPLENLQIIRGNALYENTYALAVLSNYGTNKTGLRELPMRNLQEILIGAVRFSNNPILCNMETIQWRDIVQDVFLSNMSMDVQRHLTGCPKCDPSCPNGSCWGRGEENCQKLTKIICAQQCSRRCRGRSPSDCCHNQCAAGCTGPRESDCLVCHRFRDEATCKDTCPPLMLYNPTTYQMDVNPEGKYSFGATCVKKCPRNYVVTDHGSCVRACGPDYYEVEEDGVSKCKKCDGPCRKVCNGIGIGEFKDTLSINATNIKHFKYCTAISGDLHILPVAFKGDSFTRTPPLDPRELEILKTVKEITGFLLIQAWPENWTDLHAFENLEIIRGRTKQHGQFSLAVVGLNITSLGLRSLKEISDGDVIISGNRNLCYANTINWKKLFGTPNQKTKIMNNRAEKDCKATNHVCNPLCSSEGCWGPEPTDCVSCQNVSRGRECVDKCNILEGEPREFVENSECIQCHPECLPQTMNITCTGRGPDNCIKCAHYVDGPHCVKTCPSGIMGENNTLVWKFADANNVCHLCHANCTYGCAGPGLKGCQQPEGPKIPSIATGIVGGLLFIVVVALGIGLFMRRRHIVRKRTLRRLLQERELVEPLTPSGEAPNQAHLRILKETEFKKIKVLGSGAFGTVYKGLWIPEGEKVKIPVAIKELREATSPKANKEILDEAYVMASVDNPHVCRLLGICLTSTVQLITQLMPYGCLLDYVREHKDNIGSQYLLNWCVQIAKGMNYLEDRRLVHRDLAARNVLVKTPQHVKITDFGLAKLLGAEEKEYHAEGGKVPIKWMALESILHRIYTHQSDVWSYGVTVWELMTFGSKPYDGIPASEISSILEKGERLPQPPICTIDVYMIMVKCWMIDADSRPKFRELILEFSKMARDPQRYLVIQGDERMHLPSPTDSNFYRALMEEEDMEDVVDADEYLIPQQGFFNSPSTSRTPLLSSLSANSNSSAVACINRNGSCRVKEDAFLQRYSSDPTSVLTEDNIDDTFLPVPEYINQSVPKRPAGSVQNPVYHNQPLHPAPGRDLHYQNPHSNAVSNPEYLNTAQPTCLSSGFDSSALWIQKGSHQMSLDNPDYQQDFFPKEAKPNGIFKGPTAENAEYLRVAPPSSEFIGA

Take `CC1=C(C(=O)Nc2cccc(C)c2)C(c2ccc(O)cc2)NC(=O)N1` (stereo not shown) [AD4-1010, 4-(4-hydroxyphenyl)-6-methyl-N-(3-methylphenyl)-2-oxo-1,2,3,4-tetrahydro-5pyrimidinecarboxamide]: the inhibition at 25 µM at EGFR (setting [2]) and on EGFR (setting [3]) was 39.4% in each case.
For the compound `CCOc1ccc(/C(C)=N/N=C2\NC(=O)C(CC(=O)O)S2)cc1` (stereo not shown) [AD4-1016], the inhibition at 25 µM at EGFR (setting [3]) was 37.8%.
As to `O=C(N/N=C/c1cc(Cl)ccc1O)c1ccc(O)cc1` [AD4-1017], the inhibition at 25 µM on EGFR (setting [3]) worked out at 35%.
The same measure, in the same setting: the figure for `Oc1ccc(/C=N/N=C/c2ccc(O)cc2O)c(O)c1` [AD4-1018] is 36.2%.
For the compound `O=C(O)Cn1nnc(-c2ccc(OCc3ccccc3)cc2)n1` [AD4-1020, {5-[4-(benzyloxy)phenyl]-2H-tetrazol-2-yl}acetic acid], the “inhibition of binding of EGF to EGFR” value on EGFR (setting [4]) is recorded as 48%. Besides, the inhibition at 25 µM at EGFR (setting [2]) and on EGFR (setting [3]) was 47.8% in each case.
As to `CC(Oc1ccc(C(=O)NCCc2ccccc2)cc1)C(=O)O` (stereo not shown) [AD4-1021], the inhibition at 25 µM on EGFR (setting [2]) stood at 43%; at EGFR (setting [3]), 43.4%.
For `Cc1cc(C)c(OCC(=O)Nc2cc(O)ccc2C(=O)O)cc1C` [AD4-1022], the results for the inhibition at 25 µM at EGFR (setting [2]) and at EGFR (setting [3]) were 39% and 38.6%, respectively.
As for `O=C(O)C[C@H](NCc1cccnc1)C(=O)Nc1ccc(Cl)cc1` [AD4-1025, N^1-(4-chlorophenyl)-N^2-(3-pyridinylmethyl)-alpha-asparagine], the “inhibition of binding of EGF to EGFR” value at EGFR (setting [4]) came out at 76%. For the same compound, the inhibition at 25 µM at EGFR (setting [2]) and on EGFR (setting [3]) was 75.7% in each case.
For the compound `O=C(O)CCc1ccc(-c2ccc(Cl)cc2)n1CCC(=O)O` [AD4-1027], the results for the inhibition at 25 µM on EGFR (setting [2]) and on EGFR (setting [3]) were 39% and 38.6%, respectively.
For the compound `COc1cccc(OCC(=O)Nc2ccccc2C(=O)O)c1` [AD4-1030], the inhibition at 25 µM at EGFR (setting [2]) stood at 38%; at EGFR (setting [3]) it was 37.7%.
For `CN(C1=NC(=O)C(CC(=O)O)S1)c1ccc(O)cc1` (stereo not shown) [AD4-1038, {2-[(4-Hydroxy-phenyl)-methyl-amino]-4-oxo-4,5-dihydro-thiazol-5-yl}-acetic acid], in that order: 70.7% and 70.9%.
The like results for `O=C(CC(NCC1CCCO1)C(=O)O)Nc1cccc(Cl)c1` (stereo not shown) [AD4-1039] were, in that order, 32% and 31.7%.
Regarding `CCCC(NC(=O)CCc1c(C)c2ccc(O)cc2oc1=O)C(=O)O` (stereo not shown) [AD4-1047], on EGFR (setting [3]), the inhibition at 25 µM turned out to be 32.7%.
Same read-out and setting: the figure for `COc1cc(/C=N/NC(=O)c2ccc(O)cc2O)ccc1O` [AD4-1057] is 30.1%.
In the case of `Cn1c(=O)c2c(nc(SCCCO)n2Cc2ccccc2)n(C)c1=O` [AD4-1060], at EGFR (setting [3]), the inhibition at 25 µM was 30.2%.
For the compound `NC(=O)C1CCN(C2CC(=O)N(c3ccc(C(=O)O)cc3)C2=O)CC1` (stereo not shown) [AD4-1108], on EGFR (setting [3]), the inhibition at 25 µM came to 33.1%.
Consider `O=C(O)CCCN1C(=O)/C(=C/c2cccc(O)c2)SC1=S` [AD4-1109], for which, on EGFR (setting [3]), the inhibition at 25 µM stood at 36.5%.
With `CCOc1cc(C=C2C(=O)NC(=O)NC2=O)ccc1CC(=O)O` [AD4-1121], the inhibition at 25 µM at EGFR (setting [3]) was found to be 35%.
As to `O=C(NC(=S)Nc1ccc(O)c(C(=O)O)c1)c1ccccc1` [AD4-1123], on EGFR (setting [3]), the inhibition at 25 µM turned out to be 34.1%.
Still for that read-out and setting: the same measure for `O=C1Nc2ccccc2C1(O)C/C(=N/O)c1ccc2c(c1)OCCO2` (stereo not shown) [AD4-1124]: 33.1%; for `Cc1ccc(OCCn2c(SCCO)nc3c(N)ncnc32)cc1` [AD4-1128]: 38%.
For `Cc1ccc(OCC(=O)Nc2ccc(O)cc2C(=O)O)c(C)c1` [AD4-1132, 2-{[(2,4-dimethylphenoxy)acetyl]amino}-5-hydroxybenzoic acid], the inhibition at 25 µM at EGFR (setting [2]) and on EGFR (setting [3]) was 59.6% each time.
In the case of `Oc1ccc(-c2csc(NCc3ccco3)n2)c(O)c1` [AD4-1133], on EGFR (setting [3]), the inhibition at 25 µM amounted to 37.3%.
Turning to `Cc1ccc(C(=O)Nc2ccc(C(=O)NCCCC(=O)O)cc2)o1` [AD4-1139], the inhibition at 25 µM on EGFR (setting [3]) turned out to be 39%.
Consider `O=C(CC1SC(Nc2ccc(O)cc2)=NC1=O)Nc1ccc(Br)cc1` (stereo not shown) [AD4-1140], for which the inhibition at 25 µM at EGFR (setting [3]) worked out at 36.5%.
The same measure, in the same setting: the figure for `O=C(O)c1ccccc1SC1CC(=O)N(c2ccc(O)cc2)C1=O` (stereo not shown) [AD4-1141] is 46.7%; for `COC(=O)c1cc(NC(=O)CSc2nc(C)cc(=O)[nH]2)cc(C(=O)OC)c1` [AD4-1147] it is 43.4%.
As to `NC(=O)CCC(Nc1ncnc2ccccc12)C(=O)O` (stereo not shown) [AD4-1148], the inhibition at 25 µM on EGFR (setting [3]) turned out to be 43.2%.
The same measure, in the same setting: the figure for `O=C(O)CC(NCc1ccco1)C(=O)Nc1ccc2ccccc2c1` (stereo not shown) [AD4-1149] is 33.6%; for `O=C(O)COc1ccc(C(=O)NCc2ccccc2)cc1` [AD4-1150] it is 43.1%.
Same read-out and setting: the same measure for `CN(Cc1ccccc1)S(=O)(=O)c1ccc(O)c(C(=O)O)c1` [AD4-1153]: 34%; for `Cc1cccc(NC(=O)C(CC(=O)O)NCc2ccccc2)c1` (stereo not shown) [AD4-1155]: 30.1%.
The same measure, in the same setting: the figure for `O=C(O)Cn1nnc(-c2ccc(OCc3cccc(C(F)(F)F)c3)cc2)n1` [AD4-1164] is 33.3%; for `Cc1ccc(Cl)cc1NC(=O)CC(C(=O)O)N1CCNCC1` (stereo not shown) [AD4-1165] it is 47.2%; for `Cc1cccc(NC(=O)CC(NCCN2CCOCC2)C(=O)O)c1` (stereo not shown) [AD4-1166] it is 31.2%.
As for `CCN(CC)c1ccc(NC(=O)C(CC(=O)O)NCc2ccccc2)cc1` (stereo not shown) [AD4-1167], the inhibition at 25 µM on EGFR (setting [3]) was determined as 30.6%.
Still for that read-out and setting: the same measure for `O=C(O)COc1ccc(-c2nnn(CC(=O)O)n2)cc1` [AD4-1169]: 31.4%; for `O=C(O)CC(NCc1ccccc1)C(=O)Nc1ccc(Cl)cc1` (stereo not shown) [AD4-1171]: 47.2%.
On the same count and under the same terms, the same measure for `O=C(O)Cn1nnc(-c2ccc(OCc3c(F)cccc3Cl)cc2)n1` [AD4-1175]: 35.1%.
Still for that read-out and setting: the figure for `CCNc1nc(N)nc(Oc2ccc(OCc3ccccc3)nn2)n1` [AD4-1176] is 34%; for `O=C(CSc1ccccc1)Nc1ccc(O)c(C(=O)O)c1` [AD4-1178] it is 34.6%.
In assay [1], “[125I]EGF (epidermal growth factor radioligand)” gave a Bmax (receptor number) (fmol/mg tissue (wet weight)) of 43 and a pKd of 8.98.

In general, inhibition refers to the change of the read-out against control, counted positive when it falls. In general, pKd refers to the Kd on a negative log10 scale, so that one unit is a factor of ten. Read a low pKd as a large Kd.
